{"source": "patent US6346536B1", "about": "“Poly(ADP-ribose) polymerase inhibitors and method for treating neural or cardiovascular tissue damage using the same” (Guilford Pharmaceuticals Inc., priority 1997, dated 2002)", "key": {"[1]": {"biological_target": "T1, purified recombinant human PARP (Homo sapiens, UniProt P09874)", "T1 construct": "purchased Trevigen (Gaithersburg, Md.)", "T1 sequence (P09874 whole entry)": "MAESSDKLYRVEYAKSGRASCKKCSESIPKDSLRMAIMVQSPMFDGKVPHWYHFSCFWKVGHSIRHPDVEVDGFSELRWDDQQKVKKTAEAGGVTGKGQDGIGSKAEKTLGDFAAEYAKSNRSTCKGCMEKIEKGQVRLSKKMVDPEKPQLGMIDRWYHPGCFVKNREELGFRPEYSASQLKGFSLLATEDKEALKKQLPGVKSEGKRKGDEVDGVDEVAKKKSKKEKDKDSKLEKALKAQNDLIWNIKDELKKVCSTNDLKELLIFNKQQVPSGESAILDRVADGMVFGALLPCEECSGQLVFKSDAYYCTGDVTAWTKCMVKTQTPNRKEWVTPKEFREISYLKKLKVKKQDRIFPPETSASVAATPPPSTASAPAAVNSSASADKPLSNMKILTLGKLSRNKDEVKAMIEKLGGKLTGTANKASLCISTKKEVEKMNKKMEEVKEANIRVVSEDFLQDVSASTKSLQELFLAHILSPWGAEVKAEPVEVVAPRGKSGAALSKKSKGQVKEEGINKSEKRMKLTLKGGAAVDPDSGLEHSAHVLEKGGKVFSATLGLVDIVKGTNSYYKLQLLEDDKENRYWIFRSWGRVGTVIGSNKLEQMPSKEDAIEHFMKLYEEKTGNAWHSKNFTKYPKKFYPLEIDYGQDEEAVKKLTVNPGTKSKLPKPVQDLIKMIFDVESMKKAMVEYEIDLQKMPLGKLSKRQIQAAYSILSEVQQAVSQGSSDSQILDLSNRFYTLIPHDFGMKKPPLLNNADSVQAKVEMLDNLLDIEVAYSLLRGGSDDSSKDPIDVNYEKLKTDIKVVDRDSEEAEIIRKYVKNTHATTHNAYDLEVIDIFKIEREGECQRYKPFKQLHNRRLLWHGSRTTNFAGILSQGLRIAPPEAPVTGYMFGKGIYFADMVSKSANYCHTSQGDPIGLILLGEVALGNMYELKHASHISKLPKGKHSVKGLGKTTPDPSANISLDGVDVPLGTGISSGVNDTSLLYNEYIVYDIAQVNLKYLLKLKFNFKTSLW", "assay": "PARP enzyme assay using purified recombinant human PARP, [3H]NAD incorporation", "assay_type": "biochemical", "settings": "25° C., 15 minutes, 3.0 micromolar [3H]NAD, read-out: Approximate IC50's", "method": "The reaction is initiated by incubating the mixture at 25° C. After 15 minutes' incubation, the reaction is terminated by adding 500 microliters of ice cold 20% (w/v) trichloroacetic acid. The precipitate formed is transferred onto a glass fiber filter (Packard Unifilter-GF/B) and washed three times with ethanol. After the filter is dried, the radioactivity is determined by scintillation counting."}, "[2]": {"test_system": "ischemia and reperfusion of the heart", "settings": "rabbits, cited from earlier work"}, "PARP": {"test_system": "PARP", "settings": "read-out: IC50 for inhibiting PARP; reported by Suto et al.; cited from earlier work"}, "[3]": {"test_system": "cell viability, glucose metabolism, and DNA synthesis", "settings": "Milam et al., Science 1984; cited from earlier work"}}, "note": "Where two headings read alike, the source gives them in different places."}
{"smiles": "O=c1[nH]cc([N+](=O)[O-])c2ccccc12", "values": [{"measurement": "IC50", "setting": "[1]", "result": 5, "unit": "µM"}]}
{"smiles": "O=c1[nH]c(-c2ccccc2)cc2ccccc12", "values": [{"measurement": "IC50", "setting": "[1]; unit μm [sic]", "result": 30, "unit": "µM"}]}
{"smiles": "O=C(O)c1c[nH]c(=O)c2ccccc12", "values": [{"measurement": "IC50", "setting": "[1]", "result": 10, "unit": "µM"}]}
{"smiles": "O=c1[nH]ccc2c([N+](=O)[O-])cccc12", "values": [{"measurement": "IC50", "setting": "[1]", "result": 10, "unit": "µM"}]}
{"smiles": "COC(=O)c1c[nH]c(=O)c2ccccc12", "values": [{"measurement": "IC50", "setting": "[1]", "result": 0.8, "unit": "µM"}]}
{"smiles": "Oc1cccc2c(O)nccc12", "note": "[1,5-dihydroxyisoquinoline]", "values": [{"measurement": "reduction in infarct size", "setting": "[2]; single injection 1 mg/kg", "result": "38-48%"}]}
{"smiles": "O=C1NCCc2c(OCCCCN3CCCCC3)cccc21", "note": "[3,4-dihydro-5-[4-(1-piperidinyl)butoxy]1(2H)-isoquinolinone]", "values": [{"measurement": "IC50", "setting": "PARP", "result": 0.04, "unit": "µM"}]}
{"smiles": "NC(=O)c1cccc(N)c1", "note": "[3-aminobenzamide]", "values": [{"measurement": "reduction in infarct size in the heart", "setting": "[2]; single injection 10 mg/kg, one minute before occlusion or one minute before reperfusion", "result": "32-42%"}, {"measurement": "side effects on other metabolic processes", "setting": "[3]", "result": "affect cell viability, glucose metabolism, and DNA synthesis"}]}
{"smiles": "NC(=O)c1ccccc1", "note": "[benzamide]", "values": [{"measurement": "side effects on other metabolic processes", "setting": "[3]", "result": "affect cell viability, glucose metabolism, and DNA synthesis"}]}
